According to patent publication US20250213587A1, “ITK INHIBITORS FOR INCREASING TH1 CELL ACTIVITY” (Corvus Pharmaceuticals, Inc., priority 2022, published 2025):
Entries after “also recorded” stand apart in the source; their conditions may differ.

Key:
[1] = tested on: human T cells (PBMC); experiment: T cell activation, Th1 skewing, cell number and viability; format: cell-based
Protocol: Fresh PBMCs from healthy human donors were centrifuged and reconstituted at 0.312×10^6 cells/mL in RPMI 1640 medium+10% heat-inactivated FBS+1× penicillin streptomycin and 100,000 cells/well were distributed into 24 well tissue culture plate. Cells were incubated at 37° C. for 1 hour, followed by the addition of CPI 596 or vehicle. The cells were then incubated at 37° C. for 1 hour, followed by the addition of […] anti CD3 and anti CD28 (both eBioscience). Cells were incubated at 37° C. for 6 days, with supplemental media supplied on day 3. On Day 6, the cells were transferred to a 96 deep well plate, washed, and treated with 50 nM phorbol 12-myristate 13-acetate, 1 μg/mL ionomycin, and 1 μg/mL brefeldin A, and then incubated at 37° C. for 4 hours. The cells were then fixed and permeabilized using eBioscience Fox3/transcription factor staining buffer. Cells were treated with Fc block (BioLegend) and then stained with CD3 BV605, CD45RA PerCP-Cy5.5, Tbet PE, IFNγ AF488, IL-4 APC (BioLegend), CD4 PE-Cy7, cPARP AF700 (BD Biosciences), and CD8 Krome Orange (Beckman Coulter). For flow cytometry, 300,000 cells were acquired on Cytoflex (Beckman Coulter). Data were analyzed using Flowjo software. The percentage of CD4^+ T cells that were positive for IFNγ and IL 4 were reported.

[2] = tested on: colitis in C.B-17 SCID mice; experiment: Mouse T cell adoptive transfer colitis model; format: in vivo
Protocol: To enable long-term dosing in animal studies, a CPI-818-formulated mouse diet (300 mg/kg/day), and a control diet, with macronutrient levels matching the common Teklad 2018 diet were created (Research Diets, Inc.). Adequate drug exposure was confirmed by standard LC-MS method in plasma samples. Female BALB/c mice (11-12 weeks old) and female Fox Chase C.B-17 severe combined immunodeficient (SCID) mice (6-7 weeks old) were purchased from Charles River Laboratories. […] A third group on control diet was treated weekly via intraperitoneal (IP) route with 0.5 mg/mouse of anti-IL-12 p40 (clone C17.8) (BioXcell BE0051). On study day 0, SCID mice were injected IP with 4×10^5 CD4^+CD45RB^hi splenic T cells from BALB/c mice. On study day 48, animals were sacrificed. Colons were harvested for measurements. The distal section was preserved in 10% neutral buffered formalin, embedded into paraffin blocks, and sent to HistoTox Labs, Inc. for histologic analyses. Therapeutic efficacy was based on body weights, colon weights, and colon lengths. This study was carried out at Bolder BioPATH, Inc. in accordance with the test facility standard operating procedures, the World Health Organization Quality Practices in Basic Biomedical Research guidelines, and in compliance with all state and federal regulations.
Each slide containing 3 cross sections of the distal colon from each animal was stained with hematoxylin and eosin (H&E), or with an anti-CD3 antibody, and evaluated by a board-certified veterinary pathologist blinded to treatment information. Histologic lesions in H&E-stained slides were scored separately for severity 0-5, where 0=absent, 1=minimal, 2=mild, 3=moderate, 4=marked, 5=severe. Anti-CD3-stained slides were scanned using an Aperio AT2 whole slide scanner. Exclusions were applied to remove debris and tissue artifacts from the analyzed area. An algorithm was applied to the samples using Visiopharm (VIS) image analysis software. A count-based thresholding method was utilized to determine positivity of each pixel on the slide. The average of the three colon samples per slide was taken to determine both the number of immunolabeled CD3 cells and the total area of the colon. The output images underwent a quality control check after analysis was complete. CD3-immunolabeled cell density was calculated per 10,000 μm^2 using the following formula: […]
The body weights over time between two groups of animals were compared using the two-way analysis of variance (2-way ANOVA) method. Organ weights or lengths were compared using a Student's unpaired, two-tailed, t-test with Welch's correction. All statistical analyses were performed using Prism Version 8.3.0 (GraphPad Software).

[3] = tested on: Th1, Th17, CD4+ effector cells, eosinophils; experiment: Blood and tumor cell changes in treated lymphoma patients; format: in vivo, human
[4] = tested on: MRL lymphoproliferation strain mice; experiment: MRL/lpr lupus model; details: mouse, in vivo
[5] = biological target: T1, ITK (Homo sapiens, UniProt Q08881); experiment: Jump dilution assay; format: binding; set-up: purchased Invitrogen; details: for reversibility of ITK inhibition on dilution: dilution into competitive probe
T1 sequence (Q08881 1-620): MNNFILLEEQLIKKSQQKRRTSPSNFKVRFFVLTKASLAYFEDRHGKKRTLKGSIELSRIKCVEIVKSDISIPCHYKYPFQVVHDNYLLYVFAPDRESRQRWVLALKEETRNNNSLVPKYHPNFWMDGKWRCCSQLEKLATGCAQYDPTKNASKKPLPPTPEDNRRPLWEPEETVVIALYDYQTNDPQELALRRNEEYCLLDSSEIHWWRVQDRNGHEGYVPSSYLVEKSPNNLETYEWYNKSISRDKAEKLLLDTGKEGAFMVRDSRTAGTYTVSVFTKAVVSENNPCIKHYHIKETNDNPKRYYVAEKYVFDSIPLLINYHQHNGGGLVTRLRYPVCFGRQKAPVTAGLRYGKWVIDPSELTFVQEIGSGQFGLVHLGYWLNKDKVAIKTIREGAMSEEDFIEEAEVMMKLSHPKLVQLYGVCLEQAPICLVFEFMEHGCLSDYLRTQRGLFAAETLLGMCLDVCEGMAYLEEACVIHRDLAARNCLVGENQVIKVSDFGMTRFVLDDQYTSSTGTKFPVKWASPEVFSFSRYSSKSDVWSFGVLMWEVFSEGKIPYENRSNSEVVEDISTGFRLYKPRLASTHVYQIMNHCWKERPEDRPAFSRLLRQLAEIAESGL
Protocol: The assay format is similar to the Competitive Tracer-binding Assay and relies on the reversible binding of tracer 236 to recombinant tagged human ITK. […] The mixture was then filtered through a desalting column (Thermo Scientific, Zeba Spin Desalting Column, 40K MWCO) to remove unbound inhibitor. The assay was initiated immediately after the desalting step by diluting the eluate containing the inhibited kinase complex 50-fold into a solution of anti-tag antibody (2 nM final) and excess tracer 236 (40 nM final). Dissociation of inhibitor and binding of tracer was monitored immediately after assay initiation using an EnVision plate reader (excitation 340 nm, dual emission at 665 nm and 615 nm). Reagents including GST-tagged recombinant human ITK, Kinase tracer 236, Lanthascreen Eu-Anti-GST antibody and kinase buffer A were purchased from ThermoFisher Scientific/Invitrogen. Each data point represents the mean of technical triplicates. Equation 3 was fitted to the BMS-509744 data to obtain the rate constant using GraphPad Prism from which the half-life was calculated.

In the case of `C=CC(=O)N1CCCN(C(=O)c2cc(Sc3cnc(NC(=O)C4CC4)s3)c(C)cc2OC)C[C@H]1C` [CPI-818], the “total T cell proliferation” value ([1]; 10 μM) is reported as “abrogates total T cell proliferation”, the “total number of cells and cell viability” value ([1]; ≥1 μM / high concentrations) is reported as “reduced the total number of cells while maintaining cell viability” and the “protection from colitis (diarrhea, weight loss)” value ([2]; diet 300 mg/kg/day from one week before transfer) is reported as “protected from colitis”. The “infiltration of CD3+ T cells in colon” value ([2]; histology) was “blocked the infiltration of CD3^+ T cells; also recorded: prevented infiltration of CD3+ T cells”, the “severity of histologic lesions” value ([2]; inflammation, mucosal necrosis, epithelial hyperplasia, submucosa edema) was “significantly reduced the severity” and the “colon weights and lengths” value ([2]; necropsy 7 weeks post-transfer) was “within the ranges of naïve animals”. The “CD4+ effector cells” value ([3]; blood and tumor, 200 mg BID) was “increases”, the Th17 pro-inflammatory cells ([3]; lymphoma patient) was “decrease” and the Th1 cells ([3]; lymphoma patient, blood/tumor) was “increases”. For the same compound, the eosinophils ([3]; patient on therapy) was “decreased while on therapy; also recorded: marked reduction”, the lymphadenopathy [4] was “inhibits” and the proteinuria [4] was “inhibits”. The “persistence of blockade of tracer binding to ITK” value ([5]; after jump dilution) was “greater than 24 h”, the “reversibility of ITK inhibition on dilution” value [5] was “did not dissociate upon dilution” and the “reversibility of ITK inhibition on dilution” value ([5]; listed as CP-818) was “irreversible”.
